Measurements: patent publication US9604931B2, “Nuclear receptor binding agents” (GTx, Inc., priority 2007, dated 2017)
Entries after “also recorded” stand apart in the source; their conditions may differ.

Tests used:
[1] = test system: high fat diet induced obesity in already obese mice; test: High fat diet induced obesity, treatment study (study 3); format: in vivo, C57BL6 male mice
Procedure: For the treatment obesity study (where the animals were fed with high fat diet for six weeks prior to beginning drug treatment for 18 weeks), MRI scans were performed at weeks 0, 6, 12, 18 and 24.
As the first two studies were designed to prevent obesity (i.e. animals were fed with a high fat diet and treated simultaneously), a subsequent study was conducted to evaluate the ability of 12u to affect body composition in mice that were already fed with the high fat diet and were obese. Mice were divided into three groups with one group fed with normal diet (control) and the other two groups fed with the high fat diet for 6 weeks. […] All the animals were maintained in their respective diets during the entire course of the study.

[2] = test system: LPS induced THP-1 macrophage cell adhesion to bEND-3 endothelial cells; test: Macrophage adhesion assay; format: cell-based
Procedure: To determine the anti-inflammatory effects of ER-β NRBAs in vitro, a macrophage adhesion assay was performed. Macrophages adhere to endothelial cells due to elevated levels of pro-inflammatory cytokines. This principle was used in this assay to determine the effect of one of the ER-NRBAs on bacterial lipopolysaccharide (LPS) induced THP-1 macrophage cell adhesion to bEND-3 endothelial cells.

[3] = test system: LNCaP prostate cancer cells; test: 3H thymidine incorporation, LNCaP cells; format: cell-based; conditions: 6 days treatment
Procedure: (§1) The effects of treatment of an ER-β selective NRBA of this invention on cancer cell proliferation was examined using LNCaP prostate cancer cells and C-26 colon cancer cells. LNCaP or C-26 cells were plated in growth medium in 24 well and 6 well plates, respectively. LNCaP cells were treated for 6 days and C-26 cells were treated for 3 days at the indicated concentration. ^3H thymidine incorporation was measured at the end of treatment as an indicator of cell proliferation.

C-26 colon cancer cells = test: 3H thymidine incorporation, C-26 cells; format: cell-based; conditions: 3 days treatment
Procedure: as §1

[4] = test system: LNCaP cells and human prostate stromal cells xenograft; test: LNCaP-stromal cell xenograft tumor growth; format: in vivo, nude mice; conditions: 30 mg/kg/day for 21 days
Procedure: Prostate tumor xenografts were established with LNCaP cells and human prostate stromal cells in nude mice to establish the in vivo anti-proliferative effects of these ER-β NRBAs. A 4:1 ratio (based on cell number) of LNCaP:stroma cells was injected subcutaneously in nude mice and allowed to grow until they attained 100 mm^3 in volume, as measured by calipers. […] Tumor volumes were measured twice a week and percent tumor volume calculated, after 10, 14 and 21 days.

[5] = test system: Ang II induced hypertension; test: Angiotensin II model, blood pressure; format: in vivo, ovariectomized C57/BJ6 and ERβKO mice; set-up: Systolic pressure / Diastolic pressure: unit: mmHg; conditions: for Diastolic pressure / Systolic pressure: Ang II
Procedure: (§2) Thirty, ten week old female ovariectomized C57/BJ6 mice, were obtained from Harlan/Sprague Dawley and were housed in 12 hour on/off lighting and fed rodent chow devoid of soy or most plant products. Ovariectomized ERβ gene-deleted (ERβKO or ERβ-KO) mice were obtained from Ken Korach, NIEHS. The ERβ mice were originally created by Drs. Smithies, Gustafsson, and colleagues. All mice were identically housed and fed the same chow.
(§3) This pellet is well documented to produce physiological levels of E2 in the serum of mice.
Blood pressure was measured 4 times during the 21-day period, using the CODA non-invasive blood pressure measuring system (Kent Scientific, Torrington, Conn.). Measurements were done by volume pressure recordings of the tail.

[6] = test system: Ang II induced left ventricular hypertrophy; test: Angiotensin II model, cardiac hypertrophy; format: in vivo, ovariectomized C57/BJ6 and ERβKO mice; conditions: 21 days
Procedure: as §2, with “ERβKO” for “ERβ gene-deleted (ERβKO or ERβ-KO)”
as §3
At inception and after 21 days, the mice were weighed. Blood pressure was measured 4 times during the 21-day period, using the CODA non-invasive blood pressure measuring system. At 21 days the hearts were stopped in diastole by CdCl2 administration. The hearts were removed and weighed and the ratio of heart per total body weight was determined. Next, the hearts were dissected and the left ventricles were weighed and the ratio of left ventricle per total body weight was determined. […] For comparison ERβ gene-deleted mice were subjected to the same conditions of Ang II±E2 or the 12u compound. For histology, the hearts were and sectioned, and stained with hematoxylin and eosin, or Masson stain (for collagen)

[7] = test system: MHC, phospho-ERK, MCIP-1 in left ventricle; test: Angiotensin II model, markers of cardiac hypertrophy; format: in vivo, ovariectomized C57/BJ6 and ERβKO mice
Procedure: as §2, with “ERβKO” for “ERβ gene-deleted (ERβKO or ERβ-KO)”
as §3
RT-PCR was accomplished using the following primers. GAPDH expression served as control gene for all studies. MCIP1, 5′-[…] and […]; GAPDH, 5′-[…] and […]. • For relative protein detection, immunoblots were carried out on protein extracted from the left ventricles of mice from all conditions, following separation by SDS-PAGE and transfer to nitrocellulose. Cardiac myosin heavy chain (MHC) and MCIP antibodies (ABCAM, Cambridge, Mass. and Santa Cruz Biotechnology Inc., Santa Cruz, Calif.), and brain natriuretic peptide (BNP) antibodies (Penninsula Labs, Mountain View, Calif.) were used.

[8] = test system: genes implicated in lipogenesis, lypolysis, anti-oxidant and other related pathways; test: TaqMan PCR gene expression arrays on tissues of high fat diet mice; format: in vivo, C57BL6 male mice
From the text: RNA extracted from WAT, BAT, liver and muscle were reverse transcribed using cDNA synthesis kit (Applied biosystems, Foster city, CA).
RNA from liver, muscle, WAT and BAT were applied to these arrays.

[9] = molecular target: ER-β ligand binding domain (LBD) (Homo sapiens (Human), UniProt Q92731); test: Ligand binding assay of 14m and 12u, ER-β (Example 22A)
[10] = Brown Adipose Tissue, vs high fat diet vehicle, >2-fold, p<0.01
[11] = Liver, vs high fat diet vehicle, >2-fold, p<0.01
[12] = White Adipose Tissue, vs high fat diet vehicle, >2-fold, p<0.01

Chain of ER-β ligand binding domain (LBD) (Q92731 264-498, species assumed): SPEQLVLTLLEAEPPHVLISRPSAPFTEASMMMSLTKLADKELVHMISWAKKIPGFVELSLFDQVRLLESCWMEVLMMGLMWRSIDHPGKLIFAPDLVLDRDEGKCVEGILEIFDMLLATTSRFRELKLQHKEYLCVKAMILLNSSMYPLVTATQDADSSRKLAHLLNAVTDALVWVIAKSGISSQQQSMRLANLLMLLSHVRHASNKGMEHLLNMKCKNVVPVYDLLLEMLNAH

Compound: O=c1c2c(O)cc(O)cc2c(Br)cn1-c1ccc(O)cc1 [12u, 4-bromo-6,8-dihydroxy-2-(4-hydroxyphenyl)isoquinolin-1(2H)-one]
- Body weight versus normal diet control mice ([1]; by week 16): not significantly different from normal diet control mice
- Body fat increase (MRI) ([1]; obese mice, 30 mg/kg/day s.c.): reduced
- Body weight gain after start of treatment ([1]; obese mice, 30 mg/kg/day s.c. from week 6): prevented further gains in body weight
- Adhesion of 3H labeled THP-1 cells to bEND-3 cells [2]: significantly inhibited
- Growth of LNCaP prostate cancer cells [3]: significantly inhibited
- Growth of C-26 colon cancer cells (C-26 colon cancer cells): significantly inhibited
- Xenograft tumor growth [4]: inhibited the growth of tumor significantly
- Ang II induced hypertension, diastolic pressure ([5]; ERβ-KO mice, 21 days): unchanged
- Ang II induced hypertension, systolic pressure ([5]; ERβ-KO mice, 21 days): mildly reduced
- Diastolic pressure ([5]; ERβKO, 7 days): 98
- Systolic pressure ([5]; ERβKO, 7 days): 143
- Diastolic pressure ([5]; ERβKO, 14 days): 98
- Systolic pressure ([5]; ERβKO, 14 days): 147
- Diastolic pressure ([5]; ERβKO, 21 days): 96
- Systolic pressure ([5]; ERβKO, 21 days): 146
- Diastolic pressure ([5]; ERβKO, time 0): 87
- Systolic pressure ([5]; ERβKO, time 0): 123
- Diastolic pressure ([5]; WT, 7 days): 88
- Systolic pressure ([5]; WT, 7 days): 120
- Diastolic pressure ([5]; WT, 14 days): 87
- Systolic pressure ([5]; WT, 14 days): 125
- Diastolic pressure ([5]; WT, 21 days): 86
- Systolic pressure ([5]; WT, 21 days): 130
- Diastolic pressure ([5]; WT, time 0): 85
- Systolic pressure ([5]; WT, time 0): 120
- Ang II induced hypertension ([5]; wildtype mice, 21 days): largely prevented; also recorded: prevented Ang II induced cardiac hypertension
- Ang II induced increase in heart size and total heart weight [6]: prevented the increased size
- Ang II induced left ventricular hypertrophy (LVW/BW) ([6]; wildtype but not ERβKO mice): largely prevented; also recorded: prevented Ang II induced cardiac hypertrophy and increased heart size
- Ang II induced elevations in phospho-ERK (p-ERK) ([7]; wildtype animals): partially prevented
- MCIP-1 levels ([7]; wildtype mice, irrespective of Ang II treatment): robustly elevated MCIP-1 levels

Compound: N#Cc1cn(-c2ccc(O)cc2)c(=O)c2c(O)cc(O)cc12 [14m, 6,8-dihydroxy-2-(4-hydroxyphenyl)-1-oxo-1,2-dihydroisoquinoline-4-carbonitrile]
- High fat diet increase in expression of lipogenesis genes (LPL, FASN, SREBP-1, PLTP, Dhcr24) ([8]; BAT and WAT): reversed
- Ddit3 gene expression Increase/Decrease [8, 10]: Decrease
- Dhcr24 gene expression Increase/Decrease [8, 10]: Decreased
- ER-β gene expression Increase/Decrease [8, 10]: Increased
- GPx-3 gene expression Increase/Decrease [8, 10]: Increase
- LPL gene expression Increase/Decrease [8, 10]: Decrease
- PLTP gene expression Increase/Decrease [8, 10]: Decrease
- UCP-1 gene expression Increase/Decrease [8, 10]: increase in UCP-1 gene expression; also recorded: Increased
- CIDEA gene expression Increase/Decrease [8, 11]: Decrease
- GPx-3 gene expression Increase/Decrease [8, 11]: Increase
- Ddit3 gene expression Increase/Decrease [8, 12]: Decrease
- FASN gene expression Increase/Decrease [8, 12]: Decrease
- LPL gene expression Increase/Decrease [8, 12]: Decrease
- SREBP1 gene expression Increase/Decrease [8, 12]: Decrease
- Ki [9]: 5.35 nM
